Results reported in PubChem BioAssay (NCI).
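All cell lines were grown in 96-well plates and treated with compound for 48 hours. GI50 marks 50% less growth. Definition used: TGI = concentration required for complete inhibition of growth.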

Columns and labels:
Assay in all cases: DTP human tumour cell line panel, 48 h
UACC-257 melanoma = test system: UACC-257 melanoma
SR leukemia = test system: SR leukemia
NCI-H23 lung = test system: NCI-H23 lung
HS 578T breast = test system: HS 578T breast
MOLT-4 leukemia = test system: MOLT-4 leukemia
CAKI-1 renal = test system: CAKI-1 renal
BT-549 breast = test system: BT-549 breast
HCT-116 colon = test system: HCT-116 colon
HL-60(TB) leukemia = test system: HL-60(TB) leukemia
U251 CNS = test system: U251 CNS
SF-268 CNS = test system: SF-268 CNS
KM12 colon = test system: KM12 colon
IGROV1 ovarian = test system: IGROV1 ovarian
CCRF-CEM leukemia = test system: CCRF-CEM leukemia
MCF7 breast = test system: MCF7 breast
RPMI-8226 leukemia = test system: RPMI-8226 leukemia
COLO 205 colon = test system: COLO 205 colon
A549 NSCLC = test system: A549 NSCLC
M14 melanoma = test system: M14 melanoma
K-562 leukemia = test system: K-562 leukemia
NCI-H522 lung = test system: NCI-H522 lung
OVCAR-5 ovarian = test system: OVCAR-5 ovarian
SK-MEL-2 melanoma = test system: SK-MEL-2 melanoma
OVCAR-8 ovarian = test system: OVCAR-8 ovarian
RXF 393 renal = test system: RXF 393 renal
MDA-MB-231 breast = test system: MDA-MB-231 breast
SN12C renal = test system: SN12C renal
UACC-62 melanoma = test system: UACC-62 melanoma
UO-31 renal = test system: UO-31 renal
NCI-H460 lung = test system: NCI-H460 lung
MALME-3M melanoma = test system: MALME-3M melanoma
PC-3 prostate = test system: PC-3 prostate
HOP-62 NSCLC = test system: HOP-62 NSCLC
SW-620 colon = test system: SW-620 colon
SF-539 CNS = test system: SF-539 CNS
TK-10 renal = test system: TK-10 renal
SK-MEL-5 melanoma = test system: SK-MEL-5 melanoma
HCT-15 colon = test system: HCT-15 colon
A498 renal = test system: A498 renal
OVCAR-3 ovarian = test system: OVCAR-3 ovarian
SF-295 CNS = test system: SF-295 CNS
MDA-MB-435 = test system: MDA-MB-435
HCC-2998 colon = test system: HCC-2998 colon
786-0 renal = test system: 786-0 renal
NCI/ADR-RES ovarian = test system: NCI/ADR-RES ovarian
DU-145 prostate = test system: DU-145 prostate
LOX IMVI melanoma = test system: LOX IMVI melanoma
NCI-H226 lung = test system: NCI-H226 lung
ACHN renal = test system: ACHN renal

Work on `Cn1c2ccccc2c2c(=O)n(CCCC(=O)NCC(=O)OC(=NC3CCCCC3)NC3CCCCC3)c3c(-c4ccccc4)nnn3c21` yielded a GI50 (UACC-257 melanoma) of 66.4 µM, a TGI (UACC-257 melanoma) greater than 100 µM and a GI50 (SR leukemia) of 3.04 µM. For the same molecule, the TGI (SR leukemia) was 5.09 µM, the GI50 (NCI-H23 lung) was 15.6 µM and the TGI (NCI-H23 lung) was 33 µM. The GI50 (HS 578T breast) was 9.43 µM, the TGI (HS 578T breast) was greater than 100 µM and the GI50 (MOLT-4 leukemia) was 14.5 µM. For the same molecule, the TGI (MOLT-4 leukemia) was greater than 100 µM, the GI50 (CAKI-1 renal) was 32.1 µM and the TGI (CAKI-1 renal) was greater than 100 µM. The GI50 (BT-549 breast) was 27 µM, the TGI (BT-549 breast) was greater than 100 µM and the GI50 (HCT-116 colon) was 14.3 µM. It also gave a TGI (HCT-116 colon) of 42.7 µM, a GI50 (HL-60(TB) leukemia) of 2.86 µM and a TGI (HL-60(TB) leukemia) of 8.31 µM. For the same molecule, the GI50 (U251 CNS) was 12.4 µM, the TGI (U251 CNS) was 38.3 µM and the GI50 (SF-268 CNS) was 15 µM. It also gave a TGI (SF-268 CNS) greater than 100 µM, a GI50 (KM12 colon) of 31.3 µM and a TGI (KM12 colon) greater than 100 µM. It also gave a GI50 (IGROV1 ovarian) of 2.84 µM, a TGI (IGROV1 ovarian) of 33 µM and a GI50 (CCRF-CEM leukemia) of 8.36 µM. The TGI (CCRF-CEM leukemia) was 57.7 µM, the GI50 (MCF7 breast) was 3.62 µM and the TGI (MCF7 breast) was greater than 100 µM. The GI50 (RPMI-8226 leukemia) was 4.26 µM, the TGI (RPMI-8226 leukemia) was 21.2 µM and the GI50 (COLO 205 colon) was 2.81 µM. It also gave a TGI (COLO 205 colon) greater than 100 µM, a GI50 (A549 NSCLC) of 38 µM and a TGI (A549 NSCLC) greater than 100 µM. For the same molecule, the GI50 (M14 melanoma) was 31.2 µM, the TGI (M14 melanoma) was greater than 100 µM and the GI50 (K-562 leukemia) was 23 µM. The TGI (K-562 leukemia) was greater than 100 µM, the GI50 (NCI-H522 lung) was 15.9 µM and the TGI (NCI-H522 lung) was 80.4 µM. For the same molecule, the GI50 (OVCAR-5 ovarian) was 15.3 µM, the TGI (OVCAR-5 ovarian) was 32.5 µM and the GI50 (SK-MEL-2 melanoma) was 33.1 µM. The TGI (SK-MEL-2 melanoma) was greater than 100 µM, the GI50 (OVCAR-8 ovarian) was 7.37 µM and the TGI (OVCAR-8 ovarian) was greater than 100 µM. It also gave a GI50 (RXF 393 renal) of 11.1 µM, a TGI (RXF 393 renal) of 36.9 µM and a GI50 (MDA-MB-231 breast) of 12.4 µM. The TGI (MDA-MB-231 breast) was 37.7 µM, the GI50 (SN12C renal) was 19.5 µM and the TGI (SN12C renal) was 50.7 µM. For the same molecule, the GI50 (UACC-62 melanoma) was 25.8 µM, the TGI (UACC-62 melanoma) was greater than 100 µM and the GI50 (UO-31 renal) was 31.3 µM. The TGI (UO-31 renal) was greater than 100 µM, the GI50 (NCI-H460 lung) was 32 µM and the TGI (NCI-H460 lung) was greater than 100 µM. It also gave a GI50 (MALME-3M melanoma) of 47.2 µM, a TGI (MALME-3M melanoma) greater than 100 µM and a GI50 (PC-3 prostate) of 22.7 µM. The TGI (PC-3 prostate) was greater than 100 µM, the GI50 (HOP-62 NSCLC) was 15.3 µM and the TGI (HOP-62 NSCLC) was 36.6 µM. For the same molecule, the GI50 (SW-620 colon) was 3.76 µM, the TGI (SW-620 colon) was greater than 100 µM and the GI50 (SF-539 CNS) was 19.9 µM. It also gave a TGI (SF-539 CNS) of 58.1 µM, a GI50 (TK-10 renal) greater than 100 µM and a TGI (TK-10 renal) greater than 100 µM. It also gave a GI50 (SK-MEL-5 melanoma) of 5.98 µM, a TGI (SK-MEL-5 melanoma) of 31.6 µM and a GI50 (HCT-15 colon) of 10.8 µM. For the same molecule, the TGI (HCT-15 colon) was greater than 100 µM, the GI50 (A498 renal) was 30.6 µM and the TGI (A498 renal) was greater than 100 µM. It also gave a GI50 (OVCAR-3 ovarian) of 19.6 µM, a TGI (OVCAR-3 ovarian) of 96.2 µM and a GI50 (SF-295 CNS) greater than 100 µM. For the same molecule, the TGI (SF-295 CNS) was greater than 100 µM, the GI50 (MDA-MB-435) was 25.3 µM and the TGI (MDA-MB-435) was greater than 100 µM. It also gave a GI50 (HCC-2998 colon) of 10.2 µM, a TGI (HCC-2998 colon) of 26.8 µM and a GI50 (786-0 renal) of 18.5 µM. It also gave a TGI (786-0 renal) of 45.1 µM, a GI50 (NCI/ADR-RES ovarian) of 15.6 µM and a TGI (NCI/ADR-RES ovarian) of 33.5 µM. For the same molecule, the GI50 (DU-145 prostate) was 18.4 µM, the TGI (DU-145 prostate) was greater than 100 µM and the GI50 (LOX IMVI melanoma) was 13.1 µM. The TGI (LOX IMVI melanoma) was 97.3 µM, the GI50 (NCI-H226 lung) was 40 µM and the TGI (NCI-H226 lung) was greater than 100 µM. For the same molecule, the GI50 (ACHN renal) was 26.3 µM and the TGI (ACHN renal) was greater than 100 µM.
